# Reference: ChEMBL document CHEMBL4321837, “Discovery of Potent and Orally Effective Dual Janus Kinase 2/FLT3 Inhibitors for the Treatment of Acute Myelogenous Leukemia and Myeloproliferative Neoplasms” (J Med Chem, 2019)
# Active and inactive are the calls of the source. The rule behind the calls is not given here.
# Key:
# MDA-MB-453 = test: Antiproliferative activity against human MDA-MB-453 cells assessed as reduction in cell growth after 72 hrs by MTT assay; type: functional, cell-based
# [1] = Toxicity in NOD/SCID mouse xenografted with FLT3-ITD-positive human MV4-11 cells assessed as animal survival at 30 to 60 mg/kg, po qd for 14 days; type: organism-based; details: in vivo
# MV4-11 [2] = test: Induction of apoptosis in human MV4-11 cells assessed as late apoptotic cells at 0.05 uM after 24 hrs by Annexin V FITC/PI staining based flow cytometry analysis (reference value: 1.38%); type: functional
# [3] = Intrinsic clearance in human liver microsomes; type: ADME, Microsome
# MV4-11 [4] = test: Antitumor activity against FLT3-ITD positive human MV4-11 cells xenografted in NOD/SCID mouse assessed as tumor growth inhibition at 60 mg/kg, po qd for 14 days measured every 2 days for 14 days by caliper method relative to control; type: functional; details: MV4-11, po, read-out: TGI
# MV4-11 [5] = test: Induction of apoptosis in human MV4-11 cells assessed as necrotic cells at 0.8 uM after 24 hrs by Annexin V FITC/PI staining based flow cytometry analysis (reference value: 0.18%); type: functional
# MV4-11 [6] = test: Induction of cell cycle arrest in human MV4-11 cells assessed as accumulation at S phase at 0.05 uM after 24 hrs by propidium iodide staining based flow cytometry analysis (reference value: 30.11%); type: functional
# MV4-11 [7] = test: Induction of apoptosis in human MV4-11 cells assessed as late apoptotic cells at 1.6 uM after 24 hrs by Annexin V FITC/PI staining based flow cytometry analysis (reference value: 1.38%); type: functional
# [8] = Cmax in Sprague-Dawley rat at 5 mg/kg, po measured up to 24 hrs by LC/MS/MS analysis; type: ADME, organism-based; parameters: dose 5 mg/kg, route oral; details: in vivo, 24 h
# HUVEC = test: Cytotoxicity against HUVEC assessed as cell viability after 72 hrs by MTT assay; type: cell-based; details: human
# Cytochrome P450 1A2 = Cytochrome P450 1A2 (Homo sapiens, UniProt P05177); test: Inhibition of CYP1A2 (unknown origin); type: ADME
# Cytochrome P450 1A2, sequence (P05177 whole entry): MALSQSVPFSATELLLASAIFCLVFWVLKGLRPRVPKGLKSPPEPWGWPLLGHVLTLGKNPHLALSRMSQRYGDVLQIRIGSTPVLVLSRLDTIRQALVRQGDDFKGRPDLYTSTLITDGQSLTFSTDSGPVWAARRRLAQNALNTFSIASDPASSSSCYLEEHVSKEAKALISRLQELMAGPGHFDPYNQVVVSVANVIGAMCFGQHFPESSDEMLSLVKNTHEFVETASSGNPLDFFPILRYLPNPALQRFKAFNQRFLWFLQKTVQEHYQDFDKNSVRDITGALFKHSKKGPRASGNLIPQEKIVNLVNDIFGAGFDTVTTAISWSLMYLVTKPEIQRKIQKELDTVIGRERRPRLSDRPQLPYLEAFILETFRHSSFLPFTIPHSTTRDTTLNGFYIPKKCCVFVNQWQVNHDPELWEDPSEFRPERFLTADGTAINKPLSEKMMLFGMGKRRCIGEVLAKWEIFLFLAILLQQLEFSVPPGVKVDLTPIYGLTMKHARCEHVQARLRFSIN
# MDA-MB-231 = test: Antiproliferative activity against human MDA-MB-231 cells assessed as reduction in cell growth after 72 hrs by MTT assay; type: functional, cell-based
# [9] = molecular target: T1, Tyrosine-protein kinase JAK1 (Homo sapiens, UniProt P23458); test: Inhibition of human JAK1 (866 to end residues) assessed as residual activity at 100 nM using GEEPLYWSFPAKK as substrate after 40 mins in presence of [gamma33P]-ATP by scintillation counting based radiometric assay relative to control
# T1 sequence (P23458 whole entry): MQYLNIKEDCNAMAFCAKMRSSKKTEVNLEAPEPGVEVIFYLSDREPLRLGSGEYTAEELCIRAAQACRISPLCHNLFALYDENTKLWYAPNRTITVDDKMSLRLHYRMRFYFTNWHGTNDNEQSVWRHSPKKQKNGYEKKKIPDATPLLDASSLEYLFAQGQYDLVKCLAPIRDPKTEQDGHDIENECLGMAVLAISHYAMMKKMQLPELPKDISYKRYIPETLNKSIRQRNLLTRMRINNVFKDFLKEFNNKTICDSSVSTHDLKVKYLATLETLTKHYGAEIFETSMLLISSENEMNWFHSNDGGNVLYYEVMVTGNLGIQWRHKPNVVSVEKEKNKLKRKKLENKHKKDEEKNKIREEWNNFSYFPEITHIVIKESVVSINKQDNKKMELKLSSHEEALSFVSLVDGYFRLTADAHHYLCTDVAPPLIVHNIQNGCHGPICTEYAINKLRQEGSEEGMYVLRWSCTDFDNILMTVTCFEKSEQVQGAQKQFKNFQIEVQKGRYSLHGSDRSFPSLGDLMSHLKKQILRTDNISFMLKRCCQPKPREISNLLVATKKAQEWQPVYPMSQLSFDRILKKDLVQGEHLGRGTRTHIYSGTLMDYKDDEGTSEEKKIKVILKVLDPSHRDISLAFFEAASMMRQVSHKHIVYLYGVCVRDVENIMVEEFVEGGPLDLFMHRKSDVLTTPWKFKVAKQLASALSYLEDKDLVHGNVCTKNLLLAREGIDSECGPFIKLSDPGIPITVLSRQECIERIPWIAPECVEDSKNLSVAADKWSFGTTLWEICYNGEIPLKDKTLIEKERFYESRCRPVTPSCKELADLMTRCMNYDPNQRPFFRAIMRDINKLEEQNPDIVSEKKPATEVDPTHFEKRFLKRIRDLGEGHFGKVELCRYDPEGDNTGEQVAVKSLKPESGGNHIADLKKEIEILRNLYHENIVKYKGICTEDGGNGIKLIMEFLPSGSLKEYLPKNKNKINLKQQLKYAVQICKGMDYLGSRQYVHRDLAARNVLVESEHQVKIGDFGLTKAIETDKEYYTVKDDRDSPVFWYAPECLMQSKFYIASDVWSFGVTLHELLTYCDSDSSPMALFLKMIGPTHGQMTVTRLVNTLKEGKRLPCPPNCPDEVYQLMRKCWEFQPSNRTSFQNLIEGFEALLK
# [10] = molecular target: Receptor-type tyrosine-protein kinase FLT3 (Homo sapiens) (UniProt P36888); test: Inhibition of human FLT3 (564 to end residues) assessed as residual activity at 100 nM using EAIYAAPFAKKK as substrate after 40 mins in presence of [gamma33P]-ATP by scintillation counting based radiometric assay relative to control
# Receptor-type tyrosine-protein kinase FLT3 (Homo sapiens), sequence (P36888 whole entry): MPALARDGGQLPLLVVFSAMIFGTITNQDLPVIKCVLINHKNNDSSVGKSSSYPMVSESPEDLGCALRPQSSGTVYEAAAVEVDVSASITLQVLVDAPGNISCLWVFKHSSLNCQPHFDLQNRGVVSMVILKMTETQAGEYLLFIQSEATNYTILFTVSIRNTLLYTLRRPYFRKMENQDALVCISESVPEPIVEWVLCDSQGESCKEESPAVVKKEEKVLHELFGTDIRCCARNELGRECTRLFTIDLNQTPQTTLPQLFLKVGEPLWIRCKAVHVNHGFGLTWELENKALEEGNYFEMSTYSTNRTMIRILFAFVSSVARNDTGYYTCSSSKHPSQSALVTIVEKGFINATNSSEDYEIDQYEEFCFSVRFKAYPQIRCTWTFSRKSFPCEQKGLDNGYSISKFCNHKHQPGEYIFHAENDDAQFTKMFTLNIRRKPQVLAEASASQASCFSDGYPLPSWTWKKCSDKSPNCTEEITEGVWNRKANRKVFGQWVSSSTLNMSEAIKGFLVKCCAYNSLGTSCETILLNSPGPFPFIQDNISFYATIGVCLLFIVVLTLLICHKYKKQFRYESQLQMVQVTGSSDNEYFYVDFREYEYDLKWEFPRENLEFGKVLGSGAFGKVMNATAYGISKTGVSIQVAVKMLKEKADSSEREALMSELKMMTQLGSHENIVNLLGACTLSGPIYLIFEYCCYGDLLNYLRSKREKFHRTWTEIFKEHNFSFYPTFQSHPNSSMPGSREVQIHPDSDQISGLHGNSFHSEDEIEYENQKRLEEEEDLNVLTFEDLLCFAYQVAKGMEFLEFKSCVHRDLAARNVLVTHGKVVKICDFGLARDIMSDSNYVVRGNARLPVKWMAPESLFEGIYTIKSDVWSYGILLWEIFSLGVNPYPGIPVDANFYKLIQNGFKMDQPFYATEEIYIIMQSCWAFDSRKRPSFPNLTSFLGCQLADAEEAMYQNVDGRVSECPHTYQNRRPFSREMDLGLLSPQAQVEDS
# [11] = molecular target: T2, Tyrosine-protein kinase JAK3 (Homo sapiens) (UniProt P52333); test: Inhibition of human JAK3 (781 to end residues) assessed as residual activity at 100 nM using GGEEEEYFELVKK as substrate after 40 mins in presence of [gamma33P]-ATP by scintillation counting based radiometric assay relative to control
# T2 sequence (whole entry): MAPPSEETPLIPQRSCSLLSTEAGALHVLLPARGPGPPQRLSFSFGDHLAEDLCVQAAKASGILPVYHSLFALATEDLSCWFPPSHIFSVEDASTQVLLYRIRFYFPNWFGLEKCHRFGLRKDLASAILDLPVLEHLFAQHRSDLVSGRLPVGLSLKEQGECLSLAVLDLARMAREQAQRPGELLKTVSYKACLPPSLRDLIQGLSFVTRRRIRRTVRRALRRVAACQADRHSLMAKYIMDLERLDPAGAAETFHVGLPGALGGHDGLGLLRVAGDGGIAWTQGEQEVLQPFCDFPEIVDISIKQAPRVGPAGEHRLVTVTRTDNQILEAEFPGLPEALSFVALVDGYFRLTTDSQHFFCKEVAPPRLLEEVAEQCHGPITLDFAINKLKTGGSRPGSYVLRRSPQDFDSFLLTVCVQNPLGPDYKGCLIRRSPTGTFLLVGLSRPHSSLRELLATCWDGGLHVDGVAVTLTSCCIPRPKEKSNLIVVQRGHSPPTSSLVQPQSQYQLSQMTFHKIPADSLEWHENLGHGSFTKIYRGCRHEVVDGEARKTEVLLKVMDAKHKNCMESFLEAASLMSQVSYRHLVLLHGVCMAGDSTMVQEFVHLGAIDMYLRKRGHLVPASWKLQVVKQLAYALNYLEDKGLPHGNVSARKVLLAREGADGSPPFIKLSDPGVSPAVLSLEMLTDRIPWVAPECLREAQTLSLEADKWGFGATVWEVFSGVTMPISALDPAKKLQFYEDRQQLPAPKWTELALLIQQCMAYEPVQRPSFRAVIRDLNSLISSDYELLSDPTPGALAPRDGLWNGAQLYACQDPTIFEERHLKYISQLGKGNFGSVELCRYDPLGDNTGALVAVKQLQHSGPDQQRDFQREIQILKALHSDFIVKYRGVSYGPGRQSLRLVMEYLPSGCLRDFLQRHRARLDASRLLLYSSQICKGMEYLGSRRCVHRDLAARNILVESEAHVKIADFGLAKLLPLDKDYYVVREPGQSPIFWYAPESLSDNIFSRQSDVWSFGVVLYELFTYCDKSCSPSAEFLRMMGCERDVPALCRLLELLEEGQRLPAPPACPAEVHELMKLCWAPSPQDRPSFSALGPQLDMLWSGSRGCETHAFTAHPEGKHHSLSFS
# MV4-11 [12] = test: Induction of apoptosis in human MV4-11 cells assessed as necrotic cells at 0.05 uM after 24 hrs by Annexin V FITC/PI staining based flow cytometry analysis (reference value: 0.18%); type: functional
# MV4-11 [13] = test: Antiproliferative activity against FLT3-ITD-positive human MV4-11 cells assessed as reduction in cell growth after 72 hrs by MTT assay; type: functional, cell-based; details: MV4-11, 72 h
# Cytochrome P450 2C9 = Cytochrome P450 2C9 (Homo sapiens, UniProt P11712); test: Inhibition of CYP2C9 (unknown origin); type: ADME
# Cytochrome P450 2C9, sequence (P11712 whole entry): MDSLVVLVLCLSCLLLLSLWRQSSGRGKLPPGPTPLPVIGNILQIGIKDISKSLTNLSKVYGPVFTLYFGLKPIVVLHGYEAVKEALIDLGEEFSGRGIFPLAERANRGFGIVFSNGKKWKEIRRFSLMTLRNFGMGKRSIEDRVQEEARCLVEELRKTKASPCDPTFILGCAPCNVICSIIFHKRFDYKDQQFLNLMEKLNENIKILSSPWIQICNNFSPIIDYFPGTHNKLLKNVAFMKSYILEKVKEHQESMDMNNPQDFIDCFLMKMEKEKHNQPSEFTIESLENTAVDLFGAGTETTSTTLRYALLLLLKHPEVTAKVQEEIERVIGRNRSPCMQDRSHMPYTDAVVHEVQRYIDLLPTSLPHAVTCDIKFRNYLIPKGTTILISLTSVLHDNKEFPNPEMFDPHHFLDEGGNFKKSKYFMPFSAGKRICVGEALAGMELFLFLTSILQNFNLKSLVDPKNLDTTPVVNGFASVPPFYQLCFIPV
# Cytochrome P450 3A4 = Cytochrome P450 3A4 (Homo sapiens, UniProt P08684); test: Inhibition of CYP3A4 (unknown origin); type: ADME
# Cytochrome P450 3A4, sequence (P08684 whole entry): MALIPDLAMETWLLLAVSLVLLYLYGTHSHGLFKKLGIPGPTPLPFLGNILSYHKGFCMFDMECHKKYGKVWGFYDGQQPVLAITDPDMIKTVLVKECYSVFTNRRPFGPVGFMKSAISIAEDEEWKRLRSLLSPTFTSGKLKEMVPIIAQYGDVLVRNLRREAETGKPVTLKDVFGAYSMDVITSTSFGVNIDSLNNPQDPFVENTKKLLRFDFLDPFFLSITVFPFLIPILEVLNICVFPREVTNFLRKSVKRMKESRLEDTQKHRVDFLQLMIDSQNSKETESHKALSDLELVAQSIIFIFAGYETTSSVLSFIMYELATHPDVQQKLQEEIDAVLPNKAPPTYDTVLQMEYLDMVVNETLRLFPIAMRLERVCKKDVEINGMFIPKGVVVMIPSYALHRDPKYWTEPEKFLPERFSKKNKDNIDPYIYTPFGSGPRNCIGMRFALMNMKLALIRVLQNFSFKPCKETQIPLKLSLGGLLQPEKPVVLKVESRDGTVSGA
# [14] = Toxicity in NOD/SCID mouse xenografted with human SET2 cells overexpressing JAK2 V617F mutant assessed as body weight at 30 to 60 mg/kg, po qd for 18 days; type: organism-based; details: in vivo, 432 h
# MV4-11 [15] = test: Induction of apoptosis in human MV4-11 cells assessed as viable cells at 1.6 uM after 24 hrs by Annexin V FITC/PI staining based flow cytometry analysis (reference value: 96.3%); type: functional; details: MV4-11, 24 h, read-out: Activity
# [16] = molecular target: T1, Tyrosine-protein kinase JAK1; test: Inhibition of JAK1 in human PBMC cells assessed as reduction in IL-6-induced STAT3 phosphorylation by flow cytometry; type: cell-based
# [17] = Half life in monkey liver microsomes; type: ADME, Macaca mulatta, Microsome; details: rhesus monkey
smiles,measurement,setting,value
Cc1cnc(Nc2ccc(N3CCC(N(C)CCO)CC3)c(F)c2)nc1-c1cnn(C(C)C)c1,Activity,MDA-MB-453,Active
same,survival at 336 h,[1],100%
same,Activity,MV4-11 [2],4.55%
same,CLH,[3],2.4 µL/min/mg
same,inhibition in vivo at 60 mg/kg,MV4-11 [4],93%
same,Activity,MV4-11 [5],0.93%
same,Activity,MV4-11 [6],12.84%
same,Activity,MV4-11 [7],40.9%
same,Cmax,[8],102 ng/mL
same,Activity,HUVEC,Non-Toxic
same,IC50,Cytochrome P450 1A2,64.4 µM
same,Activity,MDA-MB-231,Active
same,Activity,[9],25%
same,Activity,[10],4%
same,Activity,[11],36%
same,Activity,MV4-11 [12],0.29%
same,IC50,MV4-11 [13],0.0053 µM
same,IC50,Cytochrome P450 2C9,78.1 µM
same,IC50,Cytochrome P450 3A4,> 100 µM
same,Activity,[14],Non-Toxic
same,viability at 1.6 µM,MV4-11 [15],24.9%
same,IC50,[16],0.0942 µM
same,half-life,[17],23.1 h
